According to PubChem BioAssay AID1972 (The Scripps Research Institute Molecular Screening Center, 2009):

Test system: IEC-6 rat intestinal cells viability, luminescence
Assay: PubChem AID 1972

Q: For `COc1cc2c(c(OC)c1OC)-c1ccc(O)c(=O)cc1C(NC(C)=O)CC2` (stereo unspecified), which IC50 is on record?
A: Its IC50 is 121 nM.
